Tests used:
A549 [1] = experiment: Antiproliferative activity against human A549 cells assessed as cell growth inhibition measured after 24 hrs by MTT assay; type: functional, cell-based; settings: A549, 24 h
A549 [2] = experiment: Antiproliferative activity against human A549 cells assessed as cell growth inhibition at 5 uM in presence of etoposide by CellTiter-Glo luminescent assay relative to control; type: functional; set-up: scale not given: the % may be the effect or the level left
A549 [3] = experiment: Antiproliferative activity against human A549 cells assessed as cell growth inhibition at 5 uM in presence of doxorubicin by CellTiter-Glo luminescent assay relative to control; type: functional; set-up: scale not given: the % may be the effect or the level left
PC-3 = experiment: Antiproliferative activity against human PC-3 cells assessed as cell growth inhibition measured after 24 hrs by MTT assay; type: functional, cell-based; settings: PC-3, 24 h
[4] = target: Mitogen-activated protein kinase 3 (Homo sapiens) (UniProt P27361); experiment: Inhibition of ERK1 (unknown origin) at 25 nM relative to control
[5] = target: Vascular endothelial growth factor receptor 2 (Homo sapiens, UniProt P35968); experiment: Inhibition of VEGFR2 (unknown origin) at 25 nM using Poly(Glu, Tyr) as substrate by Kinase-Glo plus luminescent kinase assay
Chain of Vascular endothelial growth factor receptor 2 (P35968 whole entry): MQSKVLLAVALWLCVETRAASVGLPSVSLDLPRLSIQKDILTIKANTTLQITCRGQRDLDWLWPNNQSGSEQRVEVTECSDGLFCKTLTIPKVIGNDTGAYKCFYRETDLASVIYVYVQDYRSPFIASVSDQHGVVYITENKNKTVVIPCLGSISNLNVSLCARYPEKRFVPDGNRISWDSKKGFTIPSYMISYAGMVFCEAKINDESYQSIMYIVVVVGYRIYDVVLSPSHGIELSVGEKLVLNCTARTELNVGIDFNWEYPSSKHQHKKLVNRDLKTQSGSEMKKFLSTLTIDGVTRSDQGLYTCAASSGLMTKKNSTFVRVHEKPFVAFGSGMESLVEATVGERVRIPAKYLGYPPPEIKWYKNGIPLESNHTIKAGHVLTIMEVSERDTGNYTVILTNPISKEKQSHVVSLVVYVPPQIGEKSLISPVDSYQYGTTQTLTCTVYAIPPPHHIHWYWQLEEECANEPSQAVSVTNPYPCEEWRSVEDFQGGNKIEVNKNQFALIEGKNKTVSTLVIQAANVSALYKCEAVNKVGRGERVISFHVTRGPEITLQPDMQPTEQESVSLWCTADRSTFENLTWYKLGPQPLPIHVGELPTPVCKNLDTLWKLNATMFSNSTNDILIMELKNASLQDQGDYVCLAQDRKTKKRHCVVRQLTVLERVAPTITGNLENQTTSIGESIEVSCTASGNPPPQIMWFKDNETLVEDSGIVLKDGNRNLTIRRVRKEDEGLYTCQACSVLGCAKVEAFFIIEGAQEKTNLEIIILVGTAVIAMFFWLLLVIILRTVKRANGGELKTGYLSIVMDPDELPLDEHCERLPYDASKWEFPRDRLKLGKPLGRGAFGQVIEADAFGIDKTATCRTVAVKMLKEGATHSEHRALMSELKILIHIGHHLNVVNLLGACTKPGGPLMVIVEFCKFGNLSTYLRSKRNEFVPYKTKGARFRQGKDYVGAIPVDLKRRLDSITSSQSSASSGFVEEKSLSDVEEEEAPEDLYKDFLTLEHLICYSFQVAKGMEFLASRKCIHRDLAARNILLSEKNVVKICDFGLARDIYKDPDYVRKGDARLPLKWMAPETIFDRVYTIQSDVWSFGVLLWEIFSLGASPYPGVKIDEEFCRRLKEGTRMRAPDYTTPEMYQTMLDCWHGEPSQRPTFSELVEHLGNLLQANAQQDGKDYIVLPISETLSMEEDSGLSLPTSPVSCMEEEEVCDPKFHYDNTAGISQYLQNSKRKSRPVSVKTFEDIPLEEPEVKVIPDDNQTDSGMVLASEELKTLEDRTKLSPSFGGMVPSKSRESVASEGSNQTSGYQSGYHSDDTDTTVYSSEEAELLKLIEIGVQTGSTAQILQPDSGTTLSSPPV

Chain of Mitogen-activated protein kinase 3 (Homo sapiens) (P27361 whole entry): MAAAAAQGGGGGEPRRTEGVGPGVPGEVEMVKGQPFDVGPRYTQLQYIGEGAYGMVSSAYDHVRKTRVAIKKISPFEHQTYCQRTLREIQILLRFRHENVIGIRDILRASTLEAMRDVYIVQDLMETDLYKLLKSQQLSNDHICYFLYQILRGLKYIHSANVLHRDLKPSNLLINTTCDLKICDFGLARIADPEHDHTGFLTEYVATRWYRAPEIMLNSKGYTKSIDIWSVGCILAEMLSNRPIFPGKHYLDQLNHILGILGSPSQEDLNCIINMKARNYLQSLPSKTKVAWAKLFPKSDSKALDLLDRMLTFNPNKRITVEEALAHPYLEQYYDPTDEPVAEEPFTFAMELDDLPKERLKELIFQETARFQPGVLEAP

Structure (SMILES): Cn1ccc2c(Nc3cccc(Br)c3)nc(NC(=O)Nc3ccc(F)c(C(F)(F)F)c3)nc21
- IC50 (A549 [1]): 1480 nM

Structure (SMILES): COc1ccc(-c2nc3ccc(C(=O)Nc4cn(C)c(C(=O)Nc5cc(C(=O)NCCCN(C)C)n(CCCN)c5)n4)cc3[nH]2)cc1
- Activity (A549 [2]): 50%
- Activity (A549 [3]): 22%

Structure (SMILES): Cn1ccc2c(Nc3cccc(Br)c3)nc(NC(=O)Nc3ccc(Cl)c(C(F)(F)F)c3)nc21
- IC50 (PC-3): 1040 nM

Structure (SMILES): Cc1cccc(NC(=O)Nc2ccc(Oc3ncnc4[nH]c(C)c(C)c34)cc2)c1
- inhibition [4]: 50%
- IC50 [5]: 13.6 nM

Structure (SMILES): Cc1cccc(NC(=O)Nc2ccc(Nc3ncnc4[nH]c(C)c(C)c34)cc2)c1
- inhibition [4]: 50%
- IC50 [5]: 11.9 nM

Structure (SMILES): Cn1ccc2c(Nc3ccc(Cl)cc3)nc(NC(=O)Nc3ccc(F)cc3)nc21
- IC50 (A549 [1]): 1560 nM

Structure (SMILES): Cn1ccc2c(Nc3ccc(F)c(Cl)c3)nc(NC(=O)Nc3cccc(C(F)(F)F)c3)nc21
- IC50 (A549 [1]): 350 nM
